{"source": "ChEMBL document CHEMBL1201862", "about": "“PubChem BioAssay data set” (2004)", "key": {"Protein Rev": {"biological_target": "Protein Rev (Human immunodeficiency virus type 1 group M subtype B (isolate WMJ22)(HIV-1), UniProt P05866)", "sequence (P05866 whole entry)": "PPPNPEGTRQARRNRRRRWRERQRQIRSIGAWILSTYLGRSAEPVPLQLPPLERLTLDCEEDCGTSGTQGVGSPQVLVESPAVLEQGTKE", "experiment": "HIV-1 Rev-RRE RNA binding disruptors, dose response, biochemical, protein-RNA interaction (AID 842)", "design": "species or system Human immunodeficiency virus 1"}, "Cytochrome P450 2C9": {"biological_target": "Cytochrome P450 2C9 (Homo sapiens, UniProt P11712)", "sequence (P11712 whole entry)": "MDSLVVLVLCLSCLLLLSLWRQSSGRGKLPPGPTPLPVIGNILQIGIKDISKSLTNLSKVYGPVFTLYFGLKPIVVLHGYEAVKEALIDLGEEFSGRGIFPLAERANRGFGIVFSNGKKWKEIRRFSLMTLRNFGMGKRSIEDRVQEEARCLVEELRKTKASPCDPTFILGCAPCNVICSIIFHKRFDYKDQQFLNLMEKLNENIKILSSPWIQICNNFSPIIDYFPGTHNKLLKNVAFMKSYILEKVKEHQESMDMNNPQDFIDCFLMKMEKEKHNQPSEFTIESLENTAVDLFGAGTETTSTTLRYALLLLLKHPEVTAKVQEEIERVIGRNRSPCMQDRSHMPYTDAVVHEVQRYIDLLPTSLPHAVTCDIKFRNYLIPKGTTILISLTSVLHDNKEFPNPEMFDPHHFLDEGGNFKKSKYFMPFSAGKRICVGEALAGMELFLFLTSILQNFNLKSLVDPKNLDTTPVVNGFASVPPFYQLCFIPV", "conditions": "Potency"}, "Cytochrome P450 3A4": {"biological_target": "Cytochrome P450 3A4 (Homo sapiens, UniProt P08684)", "sequence (P08684 whole entry)": "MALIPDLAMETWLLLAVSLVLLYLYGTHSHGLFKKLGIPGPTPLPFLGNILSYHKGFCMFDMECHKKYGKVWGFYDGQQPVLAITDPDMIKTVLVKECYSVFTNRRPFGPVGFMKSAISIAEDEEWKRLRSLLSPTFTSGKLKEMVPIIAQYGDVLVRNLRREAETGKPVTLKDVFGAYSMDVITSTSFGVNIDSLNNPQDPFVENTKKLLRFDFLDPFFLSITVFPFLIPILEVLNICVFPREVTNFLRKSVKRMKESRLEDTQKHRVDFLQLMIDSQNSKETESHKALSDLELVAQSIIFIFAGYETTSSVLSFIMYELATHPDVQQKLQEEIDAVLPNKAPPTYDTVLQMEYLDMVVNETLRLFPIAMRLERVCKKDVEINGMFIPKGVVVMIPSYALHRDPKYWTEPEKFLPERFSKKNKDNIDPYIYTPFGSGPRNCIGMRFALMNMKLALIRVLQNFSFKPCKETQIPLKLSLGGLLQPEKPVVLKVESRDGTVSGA", "conditions": "Potency"}, "[1]": {"biological_target": "Luciferin 4-monooxygenase (Photinus pyralis, UniProt P08659)", "sequence (P08659 whole entry)": "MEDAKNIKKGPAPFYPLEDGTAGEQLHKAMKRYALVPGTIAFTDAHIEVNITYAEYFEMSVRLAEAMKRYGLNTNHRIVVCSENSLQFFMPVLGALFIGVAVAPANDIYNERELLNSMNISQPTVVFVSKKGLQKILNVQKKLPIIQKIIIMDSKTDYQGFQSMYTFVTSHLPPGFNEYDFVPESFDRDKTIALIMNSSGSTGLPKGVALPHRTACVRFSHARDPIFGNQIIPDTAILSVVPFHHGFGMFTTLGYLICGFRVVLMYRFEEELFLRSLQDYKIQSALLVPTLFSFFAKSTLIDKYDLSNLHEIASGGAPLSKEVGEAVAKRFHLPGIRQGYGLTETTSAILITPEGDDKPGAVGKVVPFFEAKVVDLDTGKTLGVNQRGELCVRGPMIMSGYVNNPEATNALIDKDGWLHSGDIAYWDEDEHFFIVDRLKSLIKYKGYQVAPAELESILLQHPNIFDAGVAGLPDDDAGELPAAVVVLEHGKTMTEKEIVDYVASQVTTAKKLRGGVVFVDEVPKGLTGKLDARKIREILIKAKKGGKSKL", "experiment": "In vitro luciferase assay using purified luciferase. [Related pubchem assays: 1299, 1270, 1295, 1375, 1287, 1281, 1293, 1291, 1289, 1280, 465, 1364, 1282, 1372, 1365, 1370, 1367, 1366, 1266, 1373, 1292, 1290, 1302, 1371, 1283, 1271, 1294, 1374, 1368, 1369 ]"}, "HEK293 [2]": {"test_system": "HEK293", "experiment": "Cytotoxicity assay in HEK293 cells. [Related pubchem assays (depositor defined):AID1266, AID1269, AID1270, AID1271, AID1280, AID1281, AID1282, AID1283, AID1287, AID1289, AID1290, AID1291, AID1292, AID1293, AID1294, AID1295, AID1299, AID1302, AID1364, AID1365, AID1366, AID1367, AID1369, AID1370, AID1371, AID1372, AID1373, AID1374, AID1375, AID1384 …", "format": "functional, cell-based", "conditions": "Homo sapiens"}, "Vero [3]": {"test_system": "Vero", "experiment": "cells", "format": "functional", "conditions": "Chlorocebus sabaeus"}, "HEK293 [4]": {"test_system": "HEK293", "experiment": "PMA/Ionomycin induced NF-kB luciferase assay in 293- NF-kB-Luc stable cells. [Related pubchem assays: 1299, 1270, 1295, 1375, 1287, 1281, 1293, 1291, 1289, 1280, 465, 1364, 1282, 1372, 1365, 1370, 1367, 1366, 1269, 1373, 1292, 1290, 1302, 1371, 1283, 1271, 1294, 1374, 1368, 1369 ]", "format": "functional, cell-based", "conditions": "Homo sapiens"}, "[5]": {"experiment": "HEp-2 cell cytotoxicity, dose response, cytotoxicity control for RSV inhibitor project, HTS (AID 2410)", "format": "functional", "conditions": "human respiratory syncytial virus"}, "HEK293 [6]": {"test_system": "HEK293", "experiment": "TNF Induced NF-kB Luciferase in 293-NF-kB-Luc Stable Cells. [Related pubchem assays: 1266, 1299, 1269, 1373, 1292, 1290, 1302, 1371, 1283, 1270, 1295, 1271, 1375, 1294, 1374, 1281, 1293, 1291, 1289, 1280, 465, 1368, 1364, 1282, 1372, 1365, 1369, 1370, 1367, 1366 ]", "format": "functional, cell-based", "conditions": "Homo sapiens"}, "HEK293 [7]": {"test_system": "HEK293", "experiment": "PMA/Ionomycin-induced IL-8 production in HEK293- NF-kB-Luc stable cells. [Related pubchem assays: 1299, 1295, 1375, 1287, 1281, 1293, 1291, 1289, 1280, 465, 1364, 1282, 1372, 1365, 1367, 1366, 1266, 1269, 1373, 1292, 1290, 1302, 1371, 1283, 1271, 1294, 1374, 1368, 1369 ]", "format": "functional, cell-based", "conditions": "Homo sapiens"}, "Vero [8]": {"test_system": "Vero", "experiment": "cells", "format": "functional, cell-based", "conditions": "Chlorocebus sabaeus"}, "[9]": {"biological_target": "Lysosomal acid glucosylceramidase (Homo sapiens, UniProt P04062)", "sequence (P04062 whole entry)": "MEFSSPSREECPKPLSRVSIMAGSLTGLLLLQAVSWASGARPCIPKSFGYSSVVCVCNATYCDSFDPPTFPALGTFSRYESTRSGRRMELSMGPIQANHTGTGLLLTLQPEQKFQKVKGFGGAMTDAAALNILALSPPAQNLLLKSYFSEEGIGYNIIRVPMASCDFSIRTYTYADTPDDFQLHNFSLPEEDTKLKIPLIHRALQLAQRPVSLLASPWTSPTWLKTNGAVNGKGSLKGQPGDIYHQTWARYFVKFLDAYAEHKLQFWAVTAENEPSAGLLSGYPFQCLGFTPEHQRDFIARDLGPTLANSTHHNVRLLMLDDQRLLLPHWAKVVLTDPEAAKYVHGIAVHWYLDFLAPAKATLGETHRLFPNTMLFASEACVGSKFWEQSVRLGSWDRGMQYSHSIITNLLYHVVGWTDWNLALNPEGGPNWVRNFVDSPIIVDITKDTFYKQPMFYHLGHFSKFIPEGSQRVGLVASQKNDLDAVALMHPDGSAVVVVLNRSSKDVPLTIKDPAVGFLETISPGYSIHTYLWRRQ", "experiment": "Dose response cell-based high throughput screening assay to identify enhancers of beta-glucosidase activity. [Related pubchem assays: 784 ]", "format": "functional"}, "[10]": {"biological_target": "T1, Neuropeptide Y receptor type 2 (Homo sapiens, UniProt P49146)", "T1 sequence (P49146 whole entry)": "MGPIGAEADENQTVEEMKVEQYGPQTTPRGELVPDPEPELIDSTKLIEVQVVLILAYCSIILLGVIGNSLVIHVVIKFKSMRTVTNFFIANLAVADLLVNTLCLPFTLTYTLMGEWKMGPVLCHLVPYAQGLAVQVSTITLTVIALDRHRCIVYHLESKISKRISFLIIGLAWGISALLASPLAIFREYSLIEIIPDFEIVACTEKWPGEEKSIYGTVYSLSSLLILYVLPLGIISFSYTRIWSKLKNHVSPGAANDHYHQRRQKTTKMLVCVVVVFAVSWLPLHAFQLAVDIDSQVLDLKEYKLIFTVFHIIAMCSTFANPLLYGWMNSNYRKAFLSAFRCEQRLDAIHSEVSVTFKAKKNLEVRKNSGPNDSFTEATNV", "experiment": "Fluorescence-based counterscreen for agonists of NPY-Y1: cell-based high-throughput dose response assay for agonists of NPY-Y2.", "format": "functional"}, "[11]": {"biological_target": "T2, Neuropeptide Y receptor type 1 (Homo sapiens, UniProt P25929)", "T2 sequence (P25929 whole entry)": "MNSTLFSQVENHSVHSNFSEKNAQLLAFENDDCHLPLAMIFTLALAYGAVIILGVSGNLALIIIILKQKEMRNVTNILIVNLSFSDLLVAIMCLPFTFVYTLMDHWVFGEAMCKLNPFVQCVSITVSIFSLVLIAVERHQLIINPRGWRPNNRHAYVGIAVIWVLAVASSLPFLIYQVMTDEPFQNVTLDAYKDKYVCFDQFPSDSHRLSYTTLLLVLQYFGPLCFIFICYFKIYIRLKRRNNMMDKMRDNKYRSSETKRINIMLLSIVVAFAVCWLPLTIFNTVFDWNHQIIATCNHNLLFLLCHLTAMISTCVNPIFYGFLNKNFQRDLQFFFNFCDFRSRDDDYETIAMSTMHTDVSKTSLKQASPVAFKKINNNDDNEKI", "experiment": "Fluorescence-based dose response cell-based high-throughput screening assay for agonists of NPY-Y1. [Related pubchem assays: 1697 (Screening assay (NPY-Y1 agonists).), 1359 (Screening assay (NPY-Y2 potentiators or agonists).), 1304 (Screening assay (NPY-Y1 potentiators or agonists).), 1704 (Screening assay (CNGC inhibitors).), 1791 (Summary AID.)]", "format": "functional"}, "HEK293 [12]": {"test_system": "HEK293", "experiment": "Fluorescence-based counterscreen for potentiators or agonists of NPY-Y1: cell-based high-throughput dose response assay for inhibitors of cyclic nucleotide gated ion channel (CNGC) activity. In this assay, the parental HEK293 cell line transfected with a cyclic-nucleotide gated ion channel (CNGC)-based cAMP sensor is used to measure inhibition of isoproterenol-induced CNGC …", "format": "functional", "conditions": "Homo sapiens"}, "[13]": {"biological_target": "Acyl-homoserine lactone acylase PvdQ (Pseudomonas aeruginosa (strain LESB58), UniProt Q9I194)", "sequence (Q9I194 24-193 limits assumed)": "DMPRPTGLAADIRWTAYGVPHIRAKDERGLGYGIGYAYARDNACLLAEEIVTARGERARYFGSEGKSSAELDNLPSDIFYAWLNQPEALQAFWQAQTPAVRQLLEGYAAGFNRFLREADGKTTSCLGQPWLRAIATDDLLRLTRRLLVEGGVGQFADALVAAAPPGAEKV", "sequence (Q9I194 217-762 limits assumed)": "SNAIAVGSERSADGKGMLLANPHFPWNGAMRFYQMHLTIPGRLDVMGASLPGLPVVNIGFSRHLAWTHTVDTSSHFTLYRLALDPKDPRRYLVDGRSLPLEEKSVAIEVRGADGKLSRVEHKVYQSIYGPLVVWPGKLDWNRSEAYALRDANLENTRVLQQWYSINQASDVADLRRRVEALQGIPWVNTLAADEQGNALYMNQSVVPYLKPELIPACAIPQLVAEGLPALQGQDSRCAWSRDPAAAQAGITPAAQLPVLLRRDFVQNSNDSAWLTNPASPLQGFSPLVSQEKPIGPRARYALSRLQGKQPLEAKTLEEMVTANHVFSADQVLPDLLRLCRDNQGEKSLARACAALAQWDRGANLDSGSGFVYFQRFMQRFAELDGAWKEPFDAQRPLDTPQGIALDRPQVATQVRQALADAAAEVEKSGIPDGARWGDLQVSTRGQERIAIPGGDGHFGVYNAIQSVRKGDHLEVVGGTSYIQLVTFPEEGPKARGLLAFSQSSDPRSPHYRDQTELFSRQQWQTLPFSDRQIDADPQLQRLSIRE", "experiment": "P. aeruginosa PvdQ acylase inhibitors, dose response, biochemical, fluorescence, plate reader and imaging, cherry-picks (AID 493231)"}}, "note": "Active and inactive are the calls of the source."}
{"smiles": "COc1ccc(CCNC(C)CCc2ccc(OC)cc2)cc1", "note": "(configuration not stated)", "values": [{"measurement": "IC50", "setting": "Protein Rev", "value": "> 79.4 µM (not active)"}]}
{"smiles": "CC1CN2C(CCC(C)C2c2ccc(Br)cc2)C(=O)O1", "note": "(configuration not stated)", "values": [{"measurement": "AC50", "setting": "Cytochrome P450 2C9", "value": "3.98 µM (inconclusive)"}, {"measurement": "AC50", "setting": "Cytochrome P450 3A4", "value": "5.01 µM (inconclusive)"}]}
{"smiles": "Cc1oc(-c2ccccc2Cl)nc1CSCC(=O)N1CCCC1", "values": [{"measurement": "EC50", "setting": "[1]", "value": "> 8 µM (not active)"}, {"measurement": "EC50", "setting": "HEK293 [2]", "value": "> 8 µM (inactive)"}, {"measurement": "CC50", "setting": "Vero [3]", "value": "> 25 µM (active)"}, {"measurement": "IC50", "setting": "cells", "value": "11 µM (active)"}, {"measurement": "EC50", "setting": "HEK293 [4]", "value": "< 4 µM (active)"}, {"measurement": "CC50", "setting": "[5]", "value": "16 µM (active)"}, {"measurement": "EC50", "setting": "HEK293 [6]", "value": "> 8 µM (not active)"}, {"measurement": "EC50", "setting": "HEK293 [7]", "value": "11.1 µM (not active)"}, {"measurement": "IC50", "setting": "Vero [8]", "value": "2.28 µM (active)"}]}
{"smiles": "O=C(OCCN1CCCCC1)c1cc2ccccc2o1", "values": [{"measurement": "EC50", "setting": "[9]", "value": "> 10 µM (not active)"}]}
{"smiles": "Oc1ccccc1Cn1c(-c2ccccc2O)nc2ccccc21", "values": [{"measurement": "EC50", "setting": "[10]", "value": "24.7 µM (not active)"}, {"measurement": "EC50", "setting": "[11]", "value": "15.6 µM (not active)"}, {"measurement": "IC50", "setting": "HEK293 [12]", "value": "14.3 µM (not active)"}]}
{"smiles": "O=C1C=C(c2ccccc2C(F)(F)F)C[C@@H](c2ccc3c(c2)OCO3)C1", "values": [{"measurement": "AC50", "setting": "[13]", "value": "> 100 µM (inactive)"}]}
